Laboratory results reported in paper PMC4265395 (Malaria Journal, 2014).
Read-outs that look alike come from different tables or passages of the source. Marks after values point to notes of the source that are not given here.

What was measured:
[1] = system: CQ-S P. falciparum parasites (3D7 strain); assay: anti-HRPII test, P. falciparum CQ-S 3D7 strain in culture; type: cell-based, Plasmodium falciparum; conditions: for SI (MLD50/IC50) 3D7 (CQ-S): MLD50 HepG2 / IC50 3D7; for IC50: Plasmodium falciparum; for Activity class against CQ-S parasites (3D7): in vitro, class by IC50
Procedure: (§1) Before tests with the molecules were performed, ring stage parasites were synchronized using sorbitol and the parasitaemia and haematocrit were adjusted; 180 μL/well was added to 96-well microtiter plates (Corning, Santa Clara, CA, USA) containing the diluted compounds tested in triplicate. Drug activity was evaluated in relation to control cultures with no drugs and was measured using the anti-histidine-rich protein II (HRPII) test as described. CQ was used in each test as a control, and two to four experiments were performed for each parasite strain.
(§2) The cultures were added to plates containing the diluted drugs, followed by incubation for 24 h under standard culture conditions. The contents of six wells with no drugs were harvested in each test plate, pooled in microtubes, and frozen for later use to measure the background parasite growth as described. […] Phosphate-buffered saline (PBS) containing 0.05% Tween and 4% bovine serum albumin was used for plate blocking (3 h at room temperature) to avoid nonspecific antibody binding. After 1 h at room temperature, the plate was washed, and 100 μL/well of a secondary antibody solution (MPFG-55P ICLLAB®, USA) was added, followed by incubation with 3,3′,5,5′-tetramethylbenzidine (TMB) chromogen (KPL, Gaithersburg, MD, USA) in the dark. […] The anti-P. falciparum drug activity was evaluated by comparing the parasite growth in the drug-free control cultures, considered 100% growth, with that in the drug test cultures.

[2] = system: CQ-R P. falciparum parasites (W2 clone); assay: anti-HRPII test, P. falciparum CQ-R W2 clone in culture; type: cell-based, Plasmodium falciparum; conditions: for SI (MLD50/IC50) W2 (CQ-R): MLD50 HepG2 / IC50 W2; for IC50: Plasmodium falciparum
Procedure: as §1, §2

[3] = system: P. berghei NK65 CQ-resistant strain; type: in vivo, P. berghei in Swiss mice; conditions: for Activity class against CQ-resistant P. berghei in mice: 25 mg/kg
Procedure: (§3) The protocol for animal use was approved by the Ethics Committee for Animal Use (CEUA LW-23/13) of the Oswaldo Cruz Foundation (Fiocruz). Only Swiss adult female mice (20 ± 2 g weight) were used; they were raised at the animal facilities at FIOCRUZ-Minas.
A P. berghei NK65 CQ-resistant strain maintained at -70°C, selected by increasing doses of CQ, maintained in mice under constant drug pressure (CQ 150 mg/kg) and stored at -70°C was also defrosted and used to inoculate mice. […] The mice were inoculated with 10^7 parasitized RBCs using blood parasites from a donor with parasites resistant to 150 mg/kg of CQ. Groups of five mice each were separated 24 h after the parasite inoculation, then treated orally with the test CQAn at doses of 25 or 50 mg/kg for three consecutive days. Two control groups were used in each experiment; one received CQ at 150 mg/kg and the other was infected but treated with vehicle only (no drugs). The inhibition of parasitaemia was evaluated as described for the mice inoculated with the CQ-sensitive parasites.

[4] = system: P. berghei NK65 blood parasites (CQ-sensitive); parameters: method as in de Souza et al. [19]; conditions: 25 mg/kg, adapted from earlier paper, ref de Souza et al. [19], cited from earlier work
[5] = system: HepG2 cells; type: cell-based; conditions: human, 24 h
Procedure: A human hepatoma cell line (HepG2), originally received from the University of Lisbon as a kind gift, was cultured as described. […] When confluent, the cell monolayer was trypsinized, washed with culture medium supplemented with 10% FCS, counted, diluted (5 × 10^3 cells/well), placed in flat-bottom 96-well plates (Corning, Santa Clara, CA, USA), and incubated for 18 h at 37°C to allow cell adhesion. […] After 3 h, the supernatant was discarded, 100 μL of dimethyl sulphoxide (DMSO) was added per well, and the optical density was measured (SpectraMax340PC384, Molecular Devices) at 570 nm (test) and 630 nm (background). Cell viability was expressed as the percentage of the absorbance compared to the absorbance of the untreated cells and subtracted from the appropriate background measurement.

[6] = system: P. berghei NK65 blood parasites (CQ-sensitive); assay: Suppressive test in mice, CQ-sensitive P. berghei; type: in vivo, P. berghei in Swiss mice; conditions: for Inhibition of P. berghei parasitaemia, day 5 / Inhibition of P. berghei parasitaemia, day 7: 50 mg/kg dose; for Inhibition of P. berghei parasitaemia, day 5: day 5 after infection; for Inhibition of P. berghei parasitaemia, day 7: day 7 after infection; for Percentage reduction of parasitaemia, CQ-Sensitive, Day 5 / Percentage reduction of parasitaemia, CQ-Sensitive, Day 7: 25 mg/kg oral, four consecutive days, vs non-treated mice; for Percentage reduction of parasitaemia, CQ-Sensitive, Day 5: day 5 after inoculation; for Percentage reduction of parasitaemia, CQ-Sensitive, Day 7: day 7 after inoculation; for Mice surviving the infection at least 30 days after the end of treatment: P. berghei-infected mice, groups of five
Procedure: as §3
The suppressive test was performed as described using the P. berghei NK65 blood parasites, with some modifications. Briefly, the blood parasites were maintained through weekly blood passages in mice. For the experiments, groups of 20–30 mice were inoculated with 1 × 10^5 infected erythrocytes. Approximately three hours later, they were randomly distributed into groups of five to six mice per cage, which were treated daily by gavage for four consecutive days. All the compounds were freshly diluted in 3% DMSO (Sigma-Aldrich) in RPMI medium and were administered orally at doses of 25 mg/kg or 50 mg/kg. The control mice received the drug vehicle. On days 5 and 7 after parasite inoculation, blood was taken from the tail of each mouse and used to prepare thin smears, which were methanol-fixed, Giemsa-stained and examined microscopically to determine parasitaemia.

[7] = system: β-haematin formation; assay: Inhibition of β-haematin formation assay (lipid catalyst); type: biochemical
Procedure: The assay was performed using a lipid as a catalyst to promote crystallization. Briefly, drug stock solutions were prepared in DMSO and were used at a final concentration of up to 30 mM. A haem stock (10 mM) was made in DMSO and was diluted to 50 μM with 100 mM sodium acetate (pH 4.8). […] The plates were incubated at 37°C for 2 h to allow crystallization, followed by the addition of 100 μl of 200 mM sodium bicarbonate (pH 9.1) to solubilize any remaining monomeric haem. After incubation for 30 min at room temperature, the amount of solubilized monomeric haem was determined by measuring the absorbance at 405 nm. Finally, 20 μl of 1 M sodium hydroxide was added to the plates to dissolve any crystals that had been formed, and the absorbance was read at 405 nm to determine the total amount of haem present in each well. The inhibition of haem crystallization was determined as a function of the amount of monomeric haem that was not crystallized divided by the total amount of haem present in the assay mixture. The results are expressed as IC50 values based on the percentage inhibition of β-haematin formation by the CQAn.

[8] = 3D7, anti-HRPII method, average ± SD of two to four experiments, read-out: Anti-P. falciparum activity (IC50) 3D7 (CQ-S)
[9] = W2, anti-HRPII method, average ± SD of two to four experiments, read-out: Anti-P. falciparum activity (IC50) W2 (CQ-R)
[10] = 25 mg/kg (footnote b; head says 50 mg/kg)
[11] = 50 mg/kg oral, three consecutive days
[12] = experiment 1, read-out: Inhibitory concentration of β-haematin formation (IC50), Exp 1
[13] = experiment 2, read-out: Inhibitory concentration of β-haematin formation (IC50), Exp 2
[14] = experiment 3, read-out: Inhibitory concentration of β-haematin formation (IC50), Exp 3

## C#CCNCCCNc1ccnc2cc(Cl)ccc12 [CQAn28]
[1]
  SI (MLD50/IC50) 3D7 (CQ-S): 101
  Activity class against CQ-S parasites (3D7): inactive
[1]; [8]
  IC50: 14900 ± 3580 nM
[2]
  SI (MLD50/IC50) W2 (CQ-R): 2125
[2]; [9]
  IC50: 710 ± 30 nM
[3]
  Activity class against CQ-resistant P. berghei in mice: inactive
[3]; [10]
  Percentage reduction of parasitaemia, CQ-Resistant, Day 5: 0^b %
[4]
  Percentage reduction of parasitaemia, CQ-Sensitive, Day 5: 94^a %
  Percentage reduction of parasitaemia, CQ-Sensitive, Day 7: 24^a %
[5]
  Cytotoxicity MLD50 HepG2 cells: 1508.56 ± 344.50 µM

## C#CCNCCCCNc1ccnc2cc(Cl)ccc12 [CQAn33]
[1]
  SI (MLD50/IC50) 3D7 (CQ-S): 131
  Activity class against CQ-S parasites (3D7): partially active (between 1–5 μM as partially active)
[1]; [8]
  IC50: 1170 ± 100 nM
[2]
  SI (MLD50/IC50) W2 (CQ-R): 7645
[2]; [9]
  IC50: 20 ± 1 nM
[2]; relative to CQ, P. falciparum in vitro
  IC50 compared with that of CQ: more than 10 fold
[3]; [11]
  Percentage reduction of parasitaemia, CQ-Resistant, Day 5: 53%
  Percentage reduction of parasitaemia, CQ-Resistant, Day 7: 52%
[6]
  Inhibition of P. berghei parasitaemia, day 5: 100%
  Inhibition of P. berghei parasitaemia, day 7: 100%
[7]; [12]
  IC50: 4.7 mM
[7]; [13]
  IC50: 3 mM
[7]; [14]
  IC50: 5.6 mM
[7]; relative to CQ
  β-haematin formation IC50 compared with that of CQ: similar
[4]
  Percentage reduction of parasitaemia, CQ-Sensitive, Day 5: 73^a %
  Percentage reduction of parasitaemia, CQ-Sensitive, Day 7: 57^a %
[5]
  Cytotoxicity MLD50 HepG2 cells: 152.89 ± 12.86 µM

## C#CCNCCNc1ccnc2cc(Cl)ccc12 [CQAn34]
[1]
  SI (MLD50/IC50) 3D7 (CQ-S): 3144
  Activity class against CQ-S parasites (3D7): active
[1]; [8]
  IC50: 300 ± 10 nM
[2]
  SI (MLD50/IC50) W2 (CQ-R): 4101
[2]; [9]
  IC50: 230 ± 150 nM
[3]
  Activity class against CQ-resistant P. berghei in mice: inactive
[3]; [10]
  Percentage reduction of parasitaemia, CQ-Resistant, Day 5: 0^b %
[6]
  Percentage reduction of parasitaemia, CQ-Sensitive, Day 5: 99%
  Percentage reduction of parasitaemia, CQ-Sensitive, Day 7: 81%
[5]
  Cytotoxicity MLD50 HepG2 cells: 943.29 ± 73.15 µM

## C#CCN(CC#C)CCNc1ccnc2cc(Cl)ccc12 [CQAn37]
[1]
  SI (MLD50/IC50) 3D7 (CQ-S): 2981
  Activity class against CQ-S parasites (3D7): active
[1]; [8]
  IC50: 570 ± 240 nM
[2]
  SI (MLD50/IC50) W2 (CQ-R): 24275
[2]; [9]
  IC50: 70 ± 30 nM
[3]; [11]
  Percentage reduction of parasitaemia, CQ-Resistant, Day 5: 47%
  Percentage reduction of parasitaemia, CQ-Resistant, Day 7: 33%
[6]
  Percentage reduction of parasitaemia, CQ-Sensitive, Day 5: 100%
  Percentage reduction of parasitaemia, CQ-Sensitive, Day 7: 93%
  Inhibition of P. berghei parasitaemia, day 5: 100%
  Inhibition of P. berghei parasitaemia, day 7: 100%
  Mice surviving the infection at least 30 days after the end of treatment: Two of the five
[7]; [12]
  IC50: 2.7 mM
[7]; [13]
  IC50: 10.2 mM
[7]; [14]
  IC50: 7.5 mM
[5]
  Cytotoxicity MLD50 HepG2 cells: 1699.24 ± 10.07 µM

## C#CCN(CC#C)CCCNc1ccnc2cc(Cl)ccc12 [CQAn39]
[1]
  SI (MLD50/IC50) 3D7 (CQ-S): 1342
  Activity class against CQ-S parasites (3D7): partially active (between 1–5 μM as partially active)
[1]; [8]
  IC50: 2390 ± 110 nM
[2]
  SI (MLD50/IC50) W2 (CQ-R): 5011
[2]; [9]
  IC50: 640 ± 290 nM
[3]; [11]
  Percentage reduction of parasitaemia, CQ-Resistant, Day 5: 62%
  Percentage reduction of parasitaemia, CQ-Resistant, Day 7: 30%
[6]
  Percentage reduction of parasitaemia, CQ-Sensitive, Day 5: 95%
  Percentage reduction of parasitaemia, CQ-Sensitive, Day 7: 92%
[5]
  Cytotoxicity MLD50 HepG2 cells: ≥3207.08 µM

## C#CCN(CC#C)CCCCNc1ccnc2cc(Cl)ccc12 [CQAn45]
[1]
  SI (MLD50/IC50) 3D7 (CQ-S): 868
  Activity class against CQ-S parasites (3D7): partially active (between 1–5 μM as partially active)
[1]; [8]
  IC50: 1170 nM
[2]; [9]
  IC50: 770 ± 210 nM
[3]; [11]
  Percentage reduction of parasitaemia, CQ-Resistant, Day 5: 63%
  Percentage reduction of parasitaemia, CQ-Resistant, Day 7: 51%
[6]
  Percentage reduction of parasitaemia, CQ-Sensitive, Day 5: 88%
  Percentage reduction of parasitaemia, CQ-Sensitive, Day 7: 50%
[5]
  Cytotoxicity MLD50 HepG2 cells: 1015.84 ± 42.97 µM

## CCN(CC)CCCC(C)Nc1ccnc2cc(Cl)ccc12 (stereo not shown) [Chloroquine, reference compound]
[1]; 3D7, read-out: Anti-P. falciparum activity (IC50) 3D7 (CQ-S)
  IC50: 81 ± 19 nM
[2]; W2, read-out: Anti-P. falciparum activity (IC50) W2 (CQ-R)
  IC50: 380 ± 30 nM
[6]
  Percentage reduction of parasitaemia, CQ-Sensitive, Day 5: 100%
  Percentage reduction of parasitaemia, CQ-Sensitive, Day 7: 97%
  Inhibition of P. berghei parasitaemia, day 5: 100%
  Inhibition of P. berghei parasitaemia, day 7: 100%
  Mice surviving the infection at least 30 days after the end of treatment: all
[7]; [12]
  IC50: 0.6 mM
[7]; [13]
  IC50: 2 mM
[7]; [14]
  IC50: 5 mM
